In publication PMC5656322, “BAK1 is involved in AtRALF1-induced inhibition of root cell expansion” (PLoS Genetics, 2017):
Where no end group is shown, it is not given here.

What was measured:
[1] = test system: Arabidopsis seedlings, rhizosphere; test: Rhizosphere alkalinization, gel with pH indicator bromocresol purple; type: in vivo, Arabidopsis thaliana; details: wild-type and bak1 seedlings, 10 μM, 30 min, pH 5.7
Method: To analyze the rhizosphere alkalinization, seedlings were grown in plates for 7 days. To avoid damage to the roots, the medium was solidified with 12 g l^-1 Phytagel. Seedlings were transferred to plates containing the pH indicator bromocresol purple (pH 5.7) as described previously and treated with 10 μM AtRALF1 or water. Images were captured 30 min after transfer onto the gel indicator. The experiments were repeated at least three times using independent biological replicates. The data shown are from one representative experiment.

[2] = test system: cytosolic Ca^2+ in Arabidopsis seedlings; test: Ca^2+ mobilization assay (apoaequorin luminescence); type: in vivo, Arabidopsis thaliana
Method: The cytoplasmic Ca^2+ assay was performed in Arabidopsis seedlings as described previously. Changes in Ca^2+ levels were measured using an Arabidopsis line homozygous for the single insertion of a transgene encoding a cytoplasmically expressed apoaequorin protein driven by the constitutive promoter 35S [53], here denoted Wt-aeq. Wt-aeq plants were crossed with bak1-3 mutants, and T3 generation plants overexpressing apoaequorin and containing a T-DNA insertion in the BAK1 gene, named bak1-3-aeq, were selected and evaluated using semi-quantitative RT-PCR with specific primers (S1 Table). Arabidopsis seedlings were grown in plates for 4 days. A single seedling was transferred into each well of a 96-well white microplate (Thermo Labsystems) containing 200 μl of medium supplemented with […] coelenterazine cp (Biotium) and incubated in the dark at 24 °C for 16 h. Each well containing a single seedling received recombinant AtRALF1 or acridinium-labeled AtRALF1 at a final concentration of 5, 10 or 100 nM as indicated. The resulting luminescence emission was monitored using a microplate reader (Biotec ELx 800) and 20 time-points for approximately 160 s. The experiments were repeated at least three times using independent biological replicates. The data shown are from one representative experiment.

BAK1-GFP = test: BAK1 protein accumulation, protein blot anti-GFP; type: in vivo, Arabidopsis thaliana; details: pBAK1:BAK1-GFP plants, 1 μM
Method: Fig 4 The BAK1 gene is induced by AtRALF1. (A) BAK1 gene expression in the roots of Arabidopsis seedlings (10-days-old) treated with AtRALF1. Root tissues were collected 1 h after treatment. Semi-quantitative RT-PCR and qRT-PCR were performed using total RNA extracted from the roots of untreated (-) or treated (+) plants. GAPDH expression was used as an internal control. (B) Quantification of GFP fluorescence intensity. The values are the mean ± SD of 20 seedlings. Student’s t test was used to compare the values obtained from treated and untreated seedlings. Double asterisk indicates P < 0.05 (Student’s t test); ns, not significant. (C) Representative confocal images of pBAK1:BAK1-GFP seedlings (4 days old) treated with 1 μM AtRALF1. Images were captured 4 h after treatment and were obtained by scanning 10 slices over a distance of 7 μm. MZ, meristematic zone; EZ, elongation zone; DZ, Differentiation zone. Bars, 100 μm. (D) pBAK1:BAK1-GFP plants were treated with water or 1 μM AtRALF1. After treatment, protein extracts from pBAK1:BAK1-GFP roots were subjected to immunoblot analysis with anti-GFP antibody. Ponceau was used to show equal loading of protein.

[3] = test system: extracellular domain of BAK1 (BAK1-ECD); test: Yeast two-hybrid with BAK1-ECD; type: binding, Arabidopsis thaliana; details: yeast AH109, medium lacking Leu, Trp, His
Text: Fig 6 AtRALF1 interacts physically with BAK1 protein. (A) The active AtRALF1 peptide interacts with the extracellular domain (ECD) of BAK1 (BAK1-ECD) in yeast. The AtRALF1 protein fused to the GAL4 DNA-binding domain (AtRALF1-pGBKT7) was used as bait to test its interaction with the extracellular domain of the proteins fused to the GAL4 activation domain (pGADT7): BAK1 (BAK1-ECD), BAK7 (BAK7-ECD), BRI1 (BRI1-ECD) and FLS2 (FLS2-ECD). (B) Blueprint showing the truncated proteins from the extracellular domain of BAK1 tested in the two-hybrid assay. The extracellular domain of BAK1 comprises leucine zippers (LZ), 5 leucine rich-regions (LRRs) and a proline-rich region (pro-rich). (C) AtRALF1-pGBKT7 was used as bait to test its interaction with truncated proteins fused to the GAL4 activation domain (pGADT7). […] HA-BAK1-ECD was detected with an anti-HA antibody. AtRALF1 was detected with an anti-RALF antibody. […] BAK1-GFP was detected with an anti-GFP antibody. […]
The coding regions of the mature peptides AtRALF1 and AtRALF34 were amplified from Arabidopsis genomic DNA and fused to the GAL4 DNA-binding domain and the MYC epitope tag using the NdeI/BamHI sites in the pGBKT7 (Clontech) vector. […] The proteins fused to the HA and MYC epitope tags were detected by protein blotting. […]

AtRALF1: root-specific RALF isoform in Arabidopsis; recombinant peptide hormone produced in E. coli (ATTKYISYQSLKRNSVPCSRRGASYYNCQNGAQANPYSRGCSKIARCRS; ends and bridges not checked; cysteine pairing not given here)
rhizosphere coloration (alkalinization) [1]: developed a purple coloration around the rhizosphere | increase in cytoplasmic Ca^2+ ([2]; acriAtRALF1 vs unlabeled AtRALF1, apoaequorin seedlings (S17A Fig)): induced an increase in cytoplasmic Ca^2+ | cytosolic calcium increase ([2]; bak1-3-aeq plants, 10 and 100 nM): cytosolic calcium increase similar to plants expressing the apoaequorin gene in a wild-type background | BAK1 protein accumulation (BAK1-GFP): BAK1 protein accumulation was also verified by protein blot | interaction with BAK1-ECD (Y2H complementation) [3]: able to complement only the BAK1-ECD construct
